Results reported in ChEMBL document CHEMBL1909046, “DrugMatrix in vitro pharmacology data”.

What was measured:
[1] = target: cGMP-specific 3',5'-cyclic phosphodiesterase (Homo sapiens, UniProt O76074); test: DRUGMATRIX: Phosphodiesterase PDE5 enzyme inhibition (substrate: [3H]cGMP + cGMP); format: tissue-based, Platelet; details: platelet; Not Active = under 50% inhibition at 10 µM
[2] = DRUGMATRIX: Potassium Channel [KATP] radioligand binding (ligand: [3H] Glyburide); format: cell membranes, Membrane; details: hit-t15; Not Active = under 50% inhibition at 10 µM
[3] = DRUGMATRIX: GABAA, Chloride Channel, TBOB radioligand binding (ligand: [3H] TBOB); format: cell membranes, Rattus norvegicus, Wistar, Cerebral cortex, Membrane; details: Not Active = under 50% inhibition at 10 µM
[4] = target: Beta-3 adrenergic receptor (Homo sapiens, UniProt P13945); test: DRUGMATRIX: Adrenergic beta3 radioligand binding (ligand: [125I] Cyanopindolol); format: cell membranes, HEK293, Membrane; details: hek293; Not Active = under 50% inhibition at 10 µM
Sequence of Beta-3 adrenergic receptor (P13945 whole entry): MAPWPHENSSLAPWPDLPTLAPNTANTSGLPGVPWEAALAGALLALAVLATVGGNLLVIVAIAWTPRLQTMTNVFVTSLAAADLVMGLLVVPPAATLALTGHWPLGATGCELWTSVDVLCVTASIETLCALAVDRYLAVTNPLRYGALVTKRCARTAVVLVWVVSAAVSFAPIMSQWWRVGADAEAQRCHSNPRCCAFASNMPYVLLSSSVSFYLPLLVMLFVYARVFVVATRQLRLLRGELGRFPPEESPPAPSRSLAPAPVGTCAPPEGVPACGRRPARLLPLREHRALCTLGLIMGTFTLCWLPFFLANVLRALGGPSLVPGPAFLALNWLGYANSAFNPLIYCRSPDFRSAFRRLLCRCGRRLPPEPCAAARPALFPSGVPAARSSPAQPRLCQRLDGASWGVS

[5] = target: Tyrosine-protein kinase Lck (Homo sapiens, UniProt P06239); test: DRUGMATRIX: Protein Tyrosine Kinase, LCK enzyme inhibition (substrate: Poly(Glu:Tyr)); format: cell-based, Insect cells; details: insect cells; Not Active = under 50% inhibition at 10 µM
Sequence of Tyrosine-protein kinase Lck (P06239 whole entry): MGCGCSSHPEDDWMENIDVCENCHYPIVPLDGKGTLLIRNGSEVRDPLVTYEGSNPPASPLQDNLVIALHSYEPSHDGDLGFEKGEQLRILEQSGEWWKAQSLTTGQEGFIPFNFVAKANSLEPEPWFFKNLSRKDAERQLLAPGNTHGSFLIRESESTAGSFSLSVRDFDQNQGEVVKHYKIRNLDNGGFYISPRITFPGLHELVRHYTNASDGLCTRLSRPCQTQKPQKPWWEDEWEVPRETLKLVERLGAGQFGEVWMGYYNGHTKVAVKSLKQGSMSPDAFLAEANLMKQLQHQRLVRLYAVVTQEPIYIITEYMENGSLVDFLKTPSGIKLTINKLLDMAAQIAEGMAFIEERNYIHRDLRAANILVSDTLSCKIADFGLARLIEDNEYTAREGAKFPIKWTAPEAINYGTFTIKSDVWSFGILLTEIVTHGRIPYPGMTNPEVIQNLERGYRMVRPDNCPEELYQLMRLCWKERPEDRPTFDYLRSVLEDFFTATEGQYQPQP

Melanocortin receptor 5 = Melanocortin receptor 5 (Homo sapiens, UniProt P33032); format: cell membranes, HEK293, Membrane; details: hek293; also: in other assays of this panel Not Active means under 50% inhibition at 10 µM
Sequence of Melanocortin receptor 5 (P33032 whole entry): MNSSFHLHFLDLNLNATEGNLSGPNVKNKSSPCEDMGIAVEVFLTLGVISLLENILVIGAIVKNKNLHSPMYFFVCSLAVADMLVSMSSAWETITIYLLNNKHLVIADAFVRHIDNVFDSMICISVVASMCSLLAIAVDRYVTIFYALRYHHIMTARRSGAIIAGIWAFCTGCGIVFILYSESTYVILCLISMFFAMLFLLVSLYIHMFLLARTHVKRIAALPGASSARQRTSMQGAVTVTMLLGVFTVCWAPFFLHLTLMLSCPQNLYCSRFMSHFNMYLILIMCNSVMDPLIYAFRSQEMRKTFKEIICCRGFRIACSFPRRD

COc1ccc(C[C@H](N)C(=O)N[C@H]2[C@@H](O)[C@H](n3cnc4c(N(C)C)ncnc43)O[C@@H]2CO)cc1 [PUROMYCIN]
Not Active: IC50 [1] | IC50 [2] | Ki [2] | IC50 [3] | Ki [3] | IC50 [4] | IC50 [5] | IC50 (Melanocortin receptor 5)

CARBOXYMETHYLCELLULOSE
Not Active: IC50 [1] | Ki [1] | IC50 [2] | Ki [2] | IC50 [3] | Ki [3] | IC50 [4] | Ki [4] | IC50 [5] | Ki [5] | IC50 (Melanocortin receptor 5) | Ki (Melanocortin receptor 5)

CHROMIC CHLORIDE
Not Active: IC50 [1] | Ki [1] | IC50 [2] | Ki [2] | IC50 [3] | Ki [3] | IC50 [4] | Ki [4] | IC50 [5] | Ki [5] | IC50 (Melanocortin receptor 5) | Ki (Melanocortin receptor 5)

COPPER(II) OXIDE
Not Active: IC50 [1] | Ki [1] | IC50 [2] | Ki [2] | IC50 [3] | Ki [3] | IC50 [4] | Ki [4] | IC50 [5] | Ki [5] | IC50 (Melanocortin receptor 5) | Ki (Melanocortin receptor 5)

POVIDONE
Not Active: IC50 [1] | Ki [1] | IC50 [2] | Ki [2] | IC50 [3] | Ki [3] | IC50 [4] | Ki [4] | IC50 [5] | Ki [5] | IC50 (Melanocortin receptor 5) | Ki (Melanocortin receptor 5)
